System: herpetic infection
Assay: Effectiveness of treating herpetic infection upon incorporation of isoleucine
Assay type: in vivo
Conditions: isoleucine incorporated into the composition
Method: The effectiveness of treating herpetic infection increases to a considerable extent upon incorporation of isoleucine into the composition, by 10-28% as compared to control. Isoleucine may be contained in the formulation of the preparation in an amount of 0.11-0.22 g per 100 ml of composition.

`CC[C@H](C)[C@H](N)C(=O)O` [isoleucine] was tested, and the “Increase of effectiveness of treating herpetic infection as compared to control” value was 10-28%.

From patent publication US20080057113A1, “Pharmaceutical Anti-Herpetic Composition, Method for Producing a Dosage Form Based Thereon and Method for the Use Thereof” (priority 2003, published 2008)
